Laboratory results published in the supplement of paper PMC10307832.

Experiments:
Assay in all cases: relative viability (nuclei count vs DMSO), 5 days (fraction); higher = more cells survive
PC-3 [JPC-3] = details: first compound 8 µM
Summary of the method: (§1)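 Medians of duplicate plates are given as relative viability. That measure is the nuclei count in treated wells divided by the count in vehicle wells. Counts were taken on 4× images of lung cancer cell lines in 1536-well plates, 5 days after pin-tool dosing the day after seeding with one drug alone or a fixed anchor-drug dose plus five library-drug doses (not always all listed) in √10 steps.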

HARA = tested on: HARA
Summary of the method: as §1

NCI-H2228 = tested on: NCI-H2228
Summary of the method: as §1

NCI-H661 = tested on: NCI-H661
Summary of the method: as §1

NCI-H1666 = tested on: NCI-H1666
Summary of the method: as §1

CAL-12T = tested on: CAL-12T
Summary of the method: as §1

NCI-H520 = tested on: NCI-H520
Summary of the method: as §1

NCI-H1734 = tested on: NCI-H1734
Summary of the method: as §1

SK-LU-1 = tested on: SK-LU-1
Summary of the method: as §1

COR-L 105 = tested on: COR-L 105
Summary of the method: as §1

NCI-H3122 = tested on: NCI-H3122
Summary of the method: as §1

PC-14 = tested on: PC-14
Summary of the method: as §1

O=c1[nH]c2ccccc2n1C1CCN(CCCC(c2ccc(F)cc2)c2ccc(F)cc2)CC1 [Pimozide] + C[C@@H](Oc1cc(-c2cnn(C3CCNCC3)c2)cnc1N)c1c(Cl)ccc(F)c1Cl [Crizotinib] (partner 1 µM)
relative viability (PC-3 [JPC-3]): 0.854 | relative viability (HARA; first compound 0.08 µM): 0.991 | relative viability (HARA; first compound 0.253 µM): 1.07 | relative viability (HARA; first compound 0.8 µM): 1.01 | relative viability (HARA; first compound 2.53 µM): 0.927 | relative viability (HARA; first compound 8 µM): 0.961 | relative viability (NCI-H2228; first compound 0.08 µM): 0.406 | relative viability (NCI-H2228; first compound 0.253 µM): 0.572 | relative viability (NCI-H2228; first compound 0.8 µM): 0.406 | relative viability (NCI-H2228; first compound 2.53 µM): 0.38 | relative viability (NCI-H2228; first compound 8 µM): 0.354 | relative viability (NCI-H661; first compound 0.08 µM): 0.975 | relative viability (NCI-H661; first compound 0.8 µM): 0.921 | relative viability (NCI-H661; first compound 2.53 µM): 0.995 | relative viability (NCI-H661; first compound 8 µM): 0.962 | relative viability (NCI-H1666; first compound 0.08 µM): 0.882 | relative viability (NCI-H1666; first compound 0.253 µM): 0.913 | relative viability (NCI-H1666; first compound 0.8 µM): 1.02 | relative viability (NCI-H1666; first compound 2.53 µM): 0.751 | relative viability (NCI-H1666; first compound 8 µM): 0.789 | relative viability (CAL-12T; first compound 0.08 µM): 0.711 | relative viability (CAL-12T; first compound 0.253 µM): 0.644 | relative viability (CAL-12T; first compound 0.8 µM): 0.557 | relative viability (CAL-12T; first compound 2.53 µM): 0.469 | relative viability (CAL-12T; first compound 8 µM): 0.473 | relative viability (NCI-H520; first compound 0.08 µM): 0.817 | relative viability (NCI-H520; first compound 0.253 µM): 0.802 | relative viability (NCI-H520; first compound 0.8 µM): 0.702 | relative viability (NCI-H520; first compound 2.53 µM): 0.819 | relative viability (NCI-H520; first compound 8 µM): 0.675 | relative viability (NCI-H1734; first compound 0.08 µM): 0.646 | relative viability (NCI-H1734; first compound 0.253 µM): 0.633 | relative viability (NCI-H1734; first compound 0.8 µM): 0.716 | relative viability (NCI-H1734; first compound 2.53 µM): 0.609 | relative viability (NCI-H1734; first compound 8 µM): 0.722 | relative viability (SK-LU-1; first compound 0.08 µM): 0.895 | relative viability (SK-LU-1; first compound 0.253 µM): 0.792 | relative viability (SK-LU-1; first compound 0.8 µM): 0.912 | relative viability (SK-LU-1; first compound 2.53 µM): 0.786 | relative viability (SK-LU-1; first compound 8 µM): 0.769 | relative viability (COR-L 105; first compound 0.253 µM): 0.831 | relative viability (COR-L 105; first compound 0.8 µM): 0.691 | relative viability (COR-L 105; first compound 2.53 µM): 0.645 | relative viability (COR-L 105; first compound 8 µM): 0.555 | relative viability (NCI-H3122; first compound 0.08 µM): 0.27 | relative viability (NCI-H3122; first compound 0.253 µM): 0.28 | relative viability (NCI-H3122; first compound 0.8 µM): 0.275 | relative viability (NCI-H3122; first compound 2.53 µM): 0.301 | relative viability (NCI-H3122; first compound 8 µM): 0.279 | relative viability (PC-14; first compound 0.253 µM): 0.84 | relative viability (PC-14; first compound 0.8 µM): 0.943 | relative viability (PC-14; first compound 2.53 µM): 0.934 | relative viability (PC-14; first compound 8 µM): 0.978
